Test results from ChEMBL document CHEMBL1201862, “PubChem BioAssay data set” (2004).
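Tested at 5 concentrations; 48 h exposure; 96-well plates; endpoints linearly interpolated, else capped at highest concentration. GI50 = concentration required for 50% inhibition of growth.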 Calls of active or inactive are those of the source. Cut-off read from the data, not from the text of the source: active = GI50 up to about 1.1 µM and inactive = higher.

How the values were obtained:
Assay in all cases: growth of human tumour cells (NCI), 48 h
MDA-MB-435 = test system: MDA-MB-435
OVCAR-3 = test system: OVCAR-3
SN12C = test system: SN12C
MOLT-4 = test system: MOLT-4
IGROV-1 = test system: IGROV-1
SK-MEL-28 = test system: SK-MEL-28
K562 = test system: K562
CCRF-CEM = test system: CCRF-CEM
HCT-116 = test system: HCT-116
OVCAR-4 = test system: OVCAR-4
786-0 = test system: 786-0
NCI-H226 = test system: NCI-H226
SK-MEL-2 = test system: SK-MEL-2
Hs-578T = test system: Hs-578T
UACC-257 = test system: UACC-257
SW-620 = test system: SW-620
OVCAR-8 = test system: OVCAR-8
SNB-19 = test system: SNB-19
BT-549 = test system: BT-549
SF-539 = test system: SF-539
Malme-3M = test system: Malme-3M
U-251 = test system: U-251
RXF 393 = test system: RXF 393
HCT-15 = test system: HCT-15
TK-10 = test system: TK-10
CAKI-1 = test system: CAKI-1
SK-OV-3 = test system: SK-OV-3
DU-145 = test system: DU-145
KM12 = test system: KM12
HOP-62 = test system: HOP-62
A549 = test system: A549
SF-268 = test system: SF-268
T47D = test system: T47D
HCC 2998 = test system: HCC 2998
LOX IMVI = test system: LOX IMVI
RPMI-8226 = test system: RPMI-8226
MCF7 = test system: MCF7
M14 = test system: M14
PC-3 = test system: PC-3
NCI-H23 = test system: NCI-H23
NCI-H522 = test system: NCI-H522
UO-31 = test system: UO-31
SR = test system: SR
EKVX = test system: EKVX
NCI-H460 = test system: NCI-H460
SF-295 = test system: SF-295
HT-29 = test system: HT-29
HL-60 = test system: HL-60
COLO 205 = test system: COLO 205
SK-MEL-5 = test system: SK-MEL-5
SNB-75 = test system: SNB-75
MDA-N = test system: MDA-N
UACC-62 = test system: UACC-62
MDA-MB-231 = test system: MDA-MB-231
HOP-92 = test system: HOP-92
OVCAR-5 = test system: OVCAR-5
NCI/ADR-RES = test system: NCI/ADR-RES
A498 = test system: A498
ACHN = test system: ACHN

CCN(CC)CCN(/C(=N/c1ccccc1)N1CCCCC1)c1ccccc1
GI50 (MDA-MB-435): 3.91 µM (inactive) | GI50 (OVCAR-3): 2.88 µM (inactive) | GI50 (SN12C): 7 µM (inactive) | GI50 (MOLT-4): 2.99 µM (inactive) | GI50 (IGROV-1): 2.75 µM (inactive) | GI50 (SK-MEL-28): 16.2 µM (inactive) | GI50 (K562): 2.18 µM (inactive) | GI50 (CCRF-CEM): 4.49 µM (inactive) | GI50 (HCT-116): 0.498 µM (active) | GI50 (OVCAR-4): 3.87 µM (inactive) | GI50 (786-0): 26.1 µM (inactive) | GI50 (NCI-H226): 9.23 µM (inactive) | GI50 (SK-MEL-2): 14.5 µM (inactive) | GI50 (Hs-578T): 10.3 µM (inactive) | GI50 (UACC-257): 10.6 µM (inactive) | GI50 (SW-620): 6.05 µM (inactive) | GI50 (OVCAR-8): 12.2 µM (inactive) | GI50 (SNB-19): 17.8 µM (inactive) | GI50 (BT-549): 13.7 µM (inactive) | GI50 (SF-539): 18.7 µM (inactive) | GI50 (Malme-3M): 15.5 µM (inactive) | GI50 (U-251): 12.7 µM (inactive) | GI50 (RXF 393): 17.7 µM (inactive) | GI50 (HCT-15): 17.2 µM | GI50 (TK-10): 13.2 µM (inactive) | GI50 (CAKI-1): 27.8 µM (inactive) | GI50 (SK-OV-3): 11.9 µM (inactive) | GI50 (DU-145): 20.2 µM (inactive) | GI50 (KM12): 5.2 µM (inactive) | GI50 (HOP-62): 8.18 µM (inactive) | GI50 (A549): 14.8 µM (inactive) | GI50 (SF-268): 27.6 µM (inactive) | GI50 (T47D): 2.31 µM (inactive) | GI50 (HCC 2998): 6 µM (inactive) | GI50 (LOX IMVI): 3.14 µM (inactive) | GI50 (RPMI-8226): 2.54 µM (inactive) | GI50 (MCF7): 5.53 µM (inactive) | GI50 (M14): 6.34 µM (inactive) | GI50 (PC-3): 2.72 µM (inactive) | GI50 (NCI-H23): 4.38 µM (inactive) | GI50 (NCI-H522): 2.62 µM (inactive) | GI50 (UO-31): 8.07 µM (inactive) | GI50 (SR): 3.4 µM (inactive) | GI50 (EKVX): 14.1 µM (inactive) | GI50 (NCI-H460): 4.78 µM (inactive) | GI50 (SF-295): 3.62 µM (inactive) | GI50 (HT-29): 1.71 µM (inactive) | GI50 (HL-60): 1.63 µM (inactive) | GI50 (COLO 205): 2.3 µM (inactive) | GI50 (SK-MEL-5): 5.08 µM (inactive) | GI50 (SNB-75): > 10 µM (inactive) | GI50 (MDA-N): 1.78 µM (inactive) | GI50 (UACC-62): 6.12 µM (inactive) | GI50 (MDA-MB-231): 3.89 µM (inactive)

O=C1N/C(=N/N=C/C(O)C(O)C(O)C(O)CO)N/C1=C\c1ccco1 (stereo not given)
GI50 (MDA-MB-435): > 100 µM (inactive) | GI50 (OVCAR-3): > 100 µM (inactive) | GI50 (SN12C): > 100 µM (inactive) | GI50 (MOLT-4): > 100 µM (inactive) | GI50 (IGROV-1): > 100 µM (inactive) | GI50 (SK-MEL-28): > 100 µM (inactive) | GI50 (K562): > 100 µM (inactive) | GI50 (CCRF-CEM): 48.4 µM (inactive) | GI50 (HCT-116): > 100 µM (inactive) | GI50 (OVCAR-4): > 100 µM (inactive) | GI50 (786-0): > 100 µM (inactive) | GI50 (NCI-H226): > 100 µM (inactive) | GI50 (HOP-92): > 100 µM (inactive) | GI50 (SK-MEL-2): 93.8 µM (inactive) | GI50 (Hs-578T): > 100 µM (inactive) | GI50 (UACC-257): > 100 µM (inactive) | GI50 (SW-620): > 100 µM (inactive) | GI50 (OVCAR-8): > 100 µM (inactive) | GI50 (SNB-19): > 100 µM (inactive) | GI50 (BT-549): > 100 µM (inactive) | GI50 (SF-539): > 100 µM (inactive) | GI50 (Malme-3M): > 100 µM (inactive) | GI50 (U-251): 89.7 µM (inactive) | GI50 (RXF 393): > 100 µM (inactive) | GI50 (HCT-15): > 100 µM | GI50 (TK-10): > 100 µM (inactive) | GI50 (CAKI-1): > 100 µM (inactive) | GI50 (SK-OV-3): > 100 µM (inactive) | GI50 (DU-145): > 100 µM (inactive) | GI50 (OVCAR-5): > 100 µM (inactive) | GI50 (KM12): > 100 µM (inactive) | GI50 (HOP-62): > 100 µM (inactive) | GI50 (A549): > 100 µM (inactive) | GI50 (SF-268): > 100 µM (inactive) | GI50 (T47D): > 100 µM (inactive) | GI50 (LOX IMVI): > 100 µM (inactive) | GI50 (RPMI-8226): > 100 µM (inactive) | GI50 (MCF7): > 100 µM (inactive) | GI50 (M14): > 100 µM (inactive) | GI50 (PC-3): 32.3 µM (inactive) | GI50 (NCI-H23): > 100 µM (inactive) | GI50 (NCI-H522): 81.7 µM (inactive) | GI50 (NCI/ADR-RES): > 100 µM (inactive) | GI50 (EKVX): > 100 µM (inactive) | GI50 (NCI-H460): > 100 µM (inactive) | GI50 (SF-295): > 100 µM (inactive) | GI50 (HT-29): > 100 µM (inactive) | GI50 (HL-60): > 100 µM (inactive) | GI50 (A498): > 100 µM (inactive) | GI50 (COLO 205): > 100 µM (inactive) | GI50 (SK-MEL-5): > 100 µM (inactive) | GI50 (ACHN): > 100 µM (inactive) | GI50 (SNB-75): > 100 µM (inactive) | GI50 (MDA-N): > 100 µM (inactive) | GI50 (UACC-62): > 100 µM (inactive) | GI50 (MDA-MB-231): > 100 µM (inactive)
